Publication PMC9462843 (Protein Science : A Publication of the Protein Society, 2022)

Key:
Assay type in all cases: biochemical
[1] = biological target: T1, PaIMPDH (Pseudomonas aeruginosa IMPDH) (Pseudomonas aeruginosa, UniProt Q9HXM5); test: IMPDH activity assay, guanine nucleotide titration (NADH fluorescence); conditions: for effect on the catalytic activity in vitro: nucleotide alone (no ATP); for effect in vitro on the activity: even at millimolar concentrations, in presence or absence of ATP
T1 construct: Open reading frames of the different enzymes were amplified by PCR using genomic DNA as template; 8xHis (N, cleaved yes); made in house; host or cells: E. coli BL21 (DE3)
T1 sequence (Q9HXM5 1-489): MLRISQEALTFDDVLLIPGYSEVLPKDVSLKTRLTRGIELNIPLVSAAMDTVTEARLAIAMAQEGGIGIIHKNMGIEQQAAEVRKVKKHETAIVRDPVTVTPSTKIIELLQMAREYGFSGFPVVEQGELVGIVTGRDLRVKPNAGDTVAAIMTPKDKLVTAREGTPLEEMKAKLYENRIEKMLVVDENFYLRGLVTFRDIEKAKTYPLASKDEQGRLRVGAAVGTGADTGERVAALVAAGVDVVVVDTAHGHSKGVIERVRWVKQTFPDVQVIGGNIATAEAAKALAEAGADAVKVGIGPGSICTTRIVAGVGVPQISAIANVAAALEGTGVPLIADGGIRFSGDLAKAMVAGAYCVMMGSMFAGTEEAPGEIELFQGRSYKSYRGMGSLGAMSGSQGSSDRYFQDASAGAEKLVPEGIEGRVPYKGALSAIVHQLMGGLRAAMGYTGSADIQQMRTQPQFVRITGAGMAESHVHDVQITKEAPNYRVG
Protocol: (§1) IMPDH activity was assayed using 384‐well microtiter plates by monitoring the appearance of NADH by fluorescence (λ exc = 340 nm and λ em = 460 nm, using a 10 nm slit window for both excitation and emission).
(§2) The total amount of MgCl2 was adjusted for each nucleotide concentration to keep 1 mM free Mg^2+ constant concentration, as previously described.[6] The experimental data were fitted to the Michaelis–Menten and allosteric sigmoidal equations using GraphPad Prism (GraphPad Software).

[2] = biological target: T2, EcIMPDH (Escherichia coli IMPDH) (Escherichia coli, UniProt P0ADG7); test: as above; conditions: for effect on the catalytic activity in vitro: nucleotide alone (no ATP); for effect in vitro on the activity: even at millimolar concentrations, in presence or absence of ATP
T2 construct: Open reading frames of the different enzymes were amplified by PCR using genomic DNA as template; 8xHis (N, cleaved yes); made in house; host or cells: E. coli BL21 (DE3)
T2 sequence (P0ADG7 whole entry): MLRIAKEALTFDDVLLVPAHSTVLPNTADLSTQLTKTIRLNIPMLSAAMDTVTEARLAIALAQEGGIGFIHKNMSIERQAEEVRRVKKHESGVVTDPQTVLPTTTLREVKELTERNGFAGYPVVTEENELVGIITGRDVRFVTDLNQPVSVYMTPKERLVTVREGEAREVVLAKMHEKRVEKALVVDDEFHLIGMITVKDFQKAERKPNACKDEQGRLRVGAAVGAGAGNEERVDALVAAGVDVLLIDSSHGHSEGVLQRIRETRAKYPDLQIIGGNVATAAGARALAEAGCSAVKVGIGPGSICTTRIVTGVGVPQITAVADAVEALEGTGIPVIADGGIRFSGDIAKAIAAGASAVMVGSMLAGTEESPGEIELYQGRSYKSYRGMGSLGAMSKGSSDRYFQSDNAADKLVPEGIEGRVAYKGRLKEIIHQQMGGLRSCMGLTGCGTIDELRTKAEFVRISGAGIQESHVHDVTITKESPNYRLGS
Protocol: as §1, §2

[3] = biological target: StcIMPDH (Streptomyces coelicolor IMPDH) (Streptomyces coelicolor, UniProt Q9L0I7); test: as above; conditions: for K i,app: 0.25 mM ATP present; for effect on the catalytic activity in vitro: nucleotide alone (no ATP)
Chain of StcIMPDH (Streptomyces coelicolor IMPDH) (Q9L0I7 entry or part of it): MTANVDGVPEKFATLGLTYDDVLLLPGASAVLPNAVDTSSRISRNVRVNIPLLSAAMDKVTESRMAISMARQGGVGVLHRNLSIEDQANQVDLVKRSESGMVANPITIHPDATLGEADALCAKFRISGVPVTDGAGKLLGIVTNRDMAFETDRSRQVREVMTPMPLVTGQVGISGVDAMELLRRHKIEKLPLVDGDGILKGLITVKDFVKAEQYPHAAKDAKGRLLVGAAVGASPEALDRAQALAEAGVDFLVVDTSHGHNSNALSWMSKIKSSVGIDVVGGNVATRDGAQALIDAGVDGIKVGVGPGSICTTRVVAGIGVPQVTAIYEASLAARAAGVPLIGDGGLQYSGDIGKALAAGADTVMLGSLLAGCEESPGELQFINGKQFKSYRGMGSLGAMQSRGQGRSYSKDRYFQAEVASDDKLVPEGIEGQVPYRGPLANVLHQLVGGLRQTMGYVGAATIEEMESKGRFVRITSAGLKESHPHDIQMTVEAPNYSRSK
Protocol: as §1, §2

[4] = biological target: T3, BsIMPDH (Bacillus subtilis IMPDH) (Bacillus subtilis, UniProt P21879); test: as above; conditions: for K i,app: 0.25 mM ATP present; for effect on the catalytic activity in vitro: nucleotide alone (no ATP); for IC50: read-out: Estimated IC50
T3 construct: Open reading frames of the different enzymes were amplified by PCR using genomic DNA as template; 8xHis (N, cleaved yes); made in house; host or cells: E. coli BL21 (DE3)
T3 sequence (P21879 whole entry): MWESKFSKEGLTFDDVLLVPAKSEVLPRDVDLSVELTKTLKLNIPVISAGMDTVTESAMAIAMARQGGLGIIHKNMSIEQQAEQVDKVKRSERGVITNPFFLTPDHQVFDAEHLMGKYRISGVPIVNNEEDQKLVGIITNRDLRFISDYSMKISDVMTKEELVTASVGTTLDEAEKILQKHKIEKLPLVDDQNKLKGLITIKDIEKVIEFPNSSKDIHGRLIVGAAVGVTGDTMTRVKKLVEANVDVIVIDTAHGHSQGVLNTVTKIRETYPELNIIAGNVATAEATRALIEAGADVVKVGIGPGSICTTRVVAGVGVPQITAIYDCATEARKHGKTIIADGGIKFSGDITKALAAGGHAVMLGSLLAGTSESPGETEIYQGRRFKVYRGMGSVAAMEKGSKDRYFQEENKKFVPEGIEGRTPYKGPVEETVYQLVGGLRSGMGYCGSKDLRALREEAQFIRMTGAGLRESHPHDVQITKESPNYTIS
Protocol: as §1, §2

PaIMPDH = biological target: T4, PaIMPDH (Pseudomonas aeruginosa, UniProt Q9HXM5); test: GTP titration curves at physiological ATP concentration (Km shift); conditions: read-out: GTP concentration required to duplicate the Km value, constant 3 mM ATP, 0.5 mM NAD, 32°C
T4 construct: Open reading frames of the different enzymes were amplified by PCR using genomic DNA as template; 8xHis (N, cleaved yes); made in house; host or cells: E. coli BL21 (DE3)
Protocol: as §1
(§3) 32 °C in buffer 100 mM Tr i s-HCl,pH8.0,100 mM KCl, 1 mM DTT, 1 mM free MgCl2, […]

EcIMPDH = biological target: T5, EcIMPDH (Escherichia coli, UniProt P0ADG7); test: as above; conditions: read-out: GTP concentration needed to duplicate the Km value, constant 3 mM ATP, 0.5 mM NAD, 32°C
T5 construct: Open reading frames of the different enzymes were amplified by PCR using genomic DNA as template; 8xHis (N, cleaved yes); made in house; host or cells: E. coli BL21 (DE3)
T5 sequence (P0ADG7 whole entry): as the sequence (P0ADG7 whole entry) above
Protocol: as §1, §3

[5] = biological target: T6, Helicobacter pylori IMPDH (HpIMPDH) (Helicobacter pylori, UniProt P56088); test: Effects of guanine nucleotides on the catalytic activity of HpIMPDH in vitro; conditions: 0.25 mM ATP + 0.5 mM (p)ppGpp, 32°C (Figure S12)
T6 construct: Open reading frames of the different enzymes were amplified by PCR using genomic DNA as template; 8xHis (N, cleaved yes); made in house; host or cells: E. coli BL21 (DE3)
T6 sequence (P56088 1-481): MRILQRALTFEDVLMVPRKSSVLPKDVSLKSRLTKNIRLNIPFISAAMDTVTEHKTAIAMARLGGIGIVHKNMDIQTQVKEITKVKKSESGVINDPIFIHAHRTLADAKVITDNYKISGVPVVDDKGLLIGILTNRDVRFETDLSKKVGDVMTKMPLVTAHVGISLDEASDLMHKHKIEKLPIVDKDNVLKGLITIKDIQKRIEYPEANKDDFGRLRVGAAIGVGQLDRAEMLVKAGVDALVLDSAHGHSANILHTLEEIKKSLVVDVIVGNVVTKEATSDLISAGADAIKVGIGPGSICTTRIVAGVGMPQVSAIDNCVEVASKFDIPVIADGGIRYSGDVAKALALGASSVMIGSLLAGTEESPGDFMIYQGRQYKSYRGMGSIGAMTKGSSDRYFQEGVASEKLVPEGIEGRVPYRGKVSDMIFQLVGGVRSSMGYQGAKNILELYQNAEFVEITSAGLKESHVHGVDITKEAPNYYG
Protocol: as §1
Supplemental Figure 12. Effects of guanine nucleotides on the catalytic activity of HpIMPDH in vitro.Normalized initialvelocity (V0) values calculated as the V0 in the absence of nucleotides divided by the corresponding values inthe presence of the indicated ones. The experiment was performed at 32 °C in buffer 100 mM Tr i s-HCl, pH 8.0, 100 mM KCl, 1 mM DTT, 1 mM free MgCl2, 50 nM enzyme, 0.5 mM NAD+ […]
Nucleotide concentrations were (from left to right): 0.5 mM
The Vo value used for normalization was 6.83 ± 0.1 nM/sec.
(1 picture or pasted object on this page, not shown here)

Row | Compound | K i,app ([1]; 0.25 mM ATP present) | effect on the catalytic activity in vitro [1] | K i,app ([2]; 0.25 mM ATP present) | effect on the catalytic activity in vitro [2] | K i,app ([3]; StcIMPDH) | effect on the catalytic activity in vitro ([3]; StcIMPDH) | K i,app ([4]; BsIMPDH) | effect on the catalytic activity in vitro ([4]; BsIMPDH) | GTP concentration doubling Km (PaIMPDH) | GTP concentration doubling Km (EcIMPDH) | effect in vitro on the activity [1] | effect in vitro on the activity [2] | IC50 [3] | inhibition of catalytic activity (potency range) ([3]; StcIMPDH, combined with ATP) | inhibition of catalytic activity (potency range) ([4]; BsIMPDH, combined with ATP) | IC50 [4] | effect on catalytic activity of HpIMPDH [5]
1 | Nc1nc2c(ncn2[C@@H]2O[C@H](COP(=O)(O)OP(=O)(O)O)[C@@H](O)[C@H]2O)c(=O)[nH]1 [GDP] | mid‐micromolar range | did not have a significant effect | mid‐micromolar range | did not have a significant effect | millimolar range | did not have a significant effect | millimolar range | did not have a significant effect |  |  |  |  |  |  |  |  | 
2 | Nc1nc2c(ncn2[C@@H]2O[C@H](COP(=O)(O)OP(=O)(O)OP(=O)(O)O)[C@@H](O)[C@H]2O)c(=O)[nH]1 [GTP] |  | did not have a significant effect |  | did not have a significant effect | millimolar range | did not have a significant effect | millimolar range | did not have a significant effect | 800 µM | 1300 µM |  |  |  |  |  |  | 
3 | Nc1nc2c(ncn2[C@@H]2O[C@H](COP(=O)(O)OP(=O)(O)O)[C@@H](OP(=O)(O)OP(=O)(O)O)[C@H]2O)c(=O)[nH]1 [ppGpp] |  | no significant effect |  | no significant effect |  | no significant effect |  | no significant effect |  |  | no detectable effect | no detectable effect | 2 ± 0.03 µM | low micromolar range | low micromolar range | 8.9 ± 0.4 µM | 
4 | Nc1nc2c(ncn2[C@@H]2O[C@H](COP(=O)(O)OP(=O)(O)OP(=O)(O)O)[C@@H](OP(=O)(O)OP(=O)(O)O)[C@H]2O)c(=O)[nH]1 [pppGpp] |  |  |  |  |  |  |  |  |  |  | no detectable effect | no detectable effect | 1.4 ± 0.03 µM |  |  | 11.4 ± 1.2 µM | 
5 | (p)ppGpp |  |  |  |  |  |  |  |  |  |  |  |  |  |  |  |  | allosteric inhibition
